Measured values reported in US20220362215A1, “THERAPEUTIC OR PROPHYLACTIC AGENT FOR CHRONIC KIDNEY DISEASE CONTAINING PYRAZOLE-AMIDE COMPOUND” (JAPAN TOBACCO INC., priority 2018, published 2022).

What was measured:
[1] = test system: saline-loaded SDT-fatty rats; 5/6 nephrectomized rats; experiment: disease model animals exhibiting CKD-like renal disorder and decreased renal function (saline-loaded SDT-fatty rat model; 5/6 nephrectomized rat model); type: in vivo; conditions: oral administration in feed
Method: Experimental Example 1: Suppressive effects of compound A on urinary protein excretion and renal disorder by oral administration of monohydrate of compound A in saline-loaded SDT-fatty rat model
In saline-loaded Spontaneously Diabetic Torii fatty (SDI-fatty) rats, suppressive effects of compound A on urinary protein excretion and renal disorder were evaluated. The evaluation was performed by reference to non-patent document 1. As the experiment animal, 6-week-old male SDI-fatty rats (CLEA Japan, Inc.) were used. A normal powder feed (CRF-1 powder, Oriental Yeast. Co., ltd.) containing 0.005 w/w % of a monohydrate of compound A as a free form of compound A was prepared. […]
For urine, after measuring the urine volume, the protein concentration in the urine was measured by the absorbance at wavelength 590 nm using a total protein quantification kit (TONEIN-TP, Otsuka Pharmaceutical Co., Ltd.). Amount of the urinary protein excretion (mg/6 hours) was calculated from the urine volume and protein concentration. […]
The mean and standard deviation of urinary protein excretion for each group were calculated, and the results thereof are shown in FIG. 1. […]
In 5/6 nephrectomized rats, suppressive effects of compound A on urinary protein excretion and renal disorder were evaluated. […]

[2] = test system: pyruvate dehydrogenase kinase (PDHK); conditions: as described in patent document 1 (WO 2014/142290); cited from earlier work

CC(C)(O)CCOc1cc(-c2cnn(C(C)(C)C(N)=O)c2)c2c(c1)[C@@](O)(C(F)(F)F)c1ccccc1-2 [compound A, 2-{4-[(9R)-9-hydroxy-2-(3-hydroxy-3-methylbutyloxy)-9-(trifluoromethyl)-9H-fluoren-4-yl]-1H-pyrazol-1-yl}-2-methylpropanamide]
severity of the disease [1]: significantly reduces the severity of the disease | pyruvate dehydrogenase kinase (PDHK) inhibitory activity [2]: inhibitory activity
